experiment: Taste of blends with siamenoside I, findings summarised in the description; conditions: blended with siamenoside I in certain ratios

Molecule	taste attributes when blended with siamenoside I vs siamenoside I only sweetened beverages
C[C@H](CC[C@@H](O[C@@H]1O[C@H](CO[C@@H]2O[C@H](CO)[C@@H](O)[C@H](O)[C@H]2O)[C@@H](O)[C@H](O)[C@H]1O)C(C)(C)O)[C@H]1CC[C@@]2(C)C3CC=C4[C@@H](CC[C@H](O[C@@H]5O[C@H](CO)[C@@H](O)[C@H](O)[C@H]5O)C4(C)C)[C@]3(C)C(=O)C[C@]12C (stereo partly drawn) [11-Oxomogroside III]	less objectionable taste attributes
C[C@H](CC[C@@H](O[C@@H]1O[C@H](CO[C@@H]2O[C@H](CO)[C@@H](O)[C@H](O)[C@H]2O)[C@@H](O)[C@H](O)[C@H]1O[C@@H]1O[C@H](CO)[C@@H](O)[C@H](O)[C@H]1O)C(C)(C)O)[C@H]1CC[C@@]2(C)C3CC=C4[C@@H](CC[C@H](O[C@@H]5O[C@H](CO)[C@@H](O[C@@H]6O[C@H](CO)[C@@H](O)[C@H](O)[C@H]6O)[C@H](O)[C@H]5O)C4(C)C)[C@]3(C)C(=O)C[C@]12C (stereo partly drawn) [11-Oxoisomogroside V, 11- Oxoisomogroside V]	less objectionable taste attributes
C[C@H](CC[C@@H](O[C@@H]1O[C@H](CO[C@@H]2O[C@H](CO)[C@@H](O)[C@H](O)[C@H]2O)[C@@H](O)[C@H](O)[C@H]1O[C@@H]1O[C@H](CO)[C@@H](O)[C@H](O)[C@H]1O)C(C)(C)O)[C@H]1CC[C@@]2(C)C3CC=C4[C@@H](CC[C@H](O[C@@H]5O[C@H](CO[C@@H]6O[C@H](CO)[C@@H](O)[C@H](O)[C@H]6O)[C@@H](O)[C@H](O)[C@H]5O)C4(C)C)[C@]3(C)[C@H](O)C[C@]12C (stereo partly drawn) [11-Oxomogroside V]	less objectionable taste attributes
C[C@H](CC[C@@H](O[C@@H]1O[C@H](CO[C@@H]2O[C@H](CO)[C@@H](O)[C@H](O)[C@H]2O)[C@@H](O)[C@H](O)[C@H]1O[C@@H]1O[C@H](CO)[C@@H](O)[C@H](O)[C@H]1O)C(C)(C)O)[C@H]1CC[C@@]2(C)C3CC=C4[C@@H](CC[C@H](O[C@@H]5O[C@H](CO)[C@@H](O[C@@H]6O[C@H](CO)[C@@H](O)[C@H](O)[C@H]6O)[C@H](O)[C@H]5O)C4(C)C)[C@]3(C)[C@H](O)C[C@]12C (stereo partly drawn) [Isomogroside V]	less objectionable taste attributes
C[C@H](CC[C@@H](O[C@@H]1O[C@H](CO)[C@@H](O)[C@H](O)[C@H]1O)C(C)(C)O)[C@H]1CC[C@@]2(C)C3CC=C4[C@@H](CC[C@H](O[C@@H]5O[C@H](CO)[C@@H](O)[C@H](O)[C@H]5O)C4(C)C)[C@]3(C)[C@H](O)C[C@]12C (stereo partly drawn) [Mogroside IIE]	less objectionable taste attributes
C[C@H](CC[C@@H](O[C@@H]1O[C@H](CO[C@@H]2O[C@H](CO)[C@@H](O)[C@H](O)[C@H]2O)[C@@H](O)[C@H](O)[C@H]1O)C(C)(C)O)[C@H]1CC[C@@]2(C)C3CC=C4[C@@H](CC[C@H](O[C@@H]5O[C@H](CO)[C@@H](O)[C@H](O)[C@H]5O)C4(C)C)[C@]3(C)[C@H](O)C[C@]12C (stereo partly drawn) [Mogroside III]	less objectionable taste attributes

same assay, conditions: in certain blends

Molecule	perception of bitterness in blends
C[C@H](CC[C@@H](O[C@@H]1O[C@H](CO[C@@H]2O[C@H](CO)[C@@H](O)[C@H](O)[C@H]2O)[C@@H](O)[C@H](O)[C@H]1O)C(C)(C)O)[C@H]1CC[C@@]2(C)C3CC=C4[C@@H](CC[C@H](O[C@@H]5O[C@H](CO)[C@@H](O)[C@H](O)[C@H]5O)C4(C)C)[C@]3(C)C(=O)C[C@]12C (stereo partly drawn) [11-Oxomogroside III]	increase the perception of bitterness
C[C@H](CC[C@@H](O[C@@H]1O[C@H](CO)[C@@H](O)[C@H](O)[C@H]1O[C@@H]1O[C@H](CO)[C@@H](O)[C@H](O)[C@H]1O)C(C)(C)O)[C@H]1CC[C@@]2(C)[C@@H]3CC=C4[C@@H](CC[C@H](O)C4(C)C)[C@]3(C)C(=O)C[C@]12C [11-Oxomogroside IIA]	increase the perception of bitterness
C[C@H](CC[C@@H](O)C(C)(C)O)[C@H]1CC[C@@]2(C)C3CC=C4[C@@H](CC[C@H](O[C@@H]5O[C@H](CO)[C@@H](O)[C@H](O)[C@H]5O)C4(C)C)[C@]3(C)[C@H](O)C[C@]12C (stereo partly drawn) [Mogroside IE]	increase the perception of bitterness
C[C@H](CC[C@@H](O[C@@H]1O[C@H](CO)[C@@H](O)[C@H](O)[C@H]1O)C(C)(C)O)[C@H]1CC[C@@]2(C)C3CC=C4[C@@H](CC[C@H](O[C@@H]5O[C@H](CO[C@@H]6O[C@H](CO)[C@@H](O)[C@H](O)[C@H]6O)[C@@H](O)[C@H](O)[C@H]5O)C4(C)C)[C@]3(C)[C@H](O)C[C@]12C (stereo partly drawn) [Mogroside IIIA2]	increase the perception of bitterness
C[C@H](CC[C@@H](O)C(C)(C)O)[C@H]1CC[C@@]2(C)[C@@H]3CC=C4[C@@H](CC[C@H](O[C@@H]5O[C@H](CO[C@@H]6O[C@H](CO)[C@@H](O)[C@H](O)[C@H]6O)[C@@H](O)[C@H](O)[C@H]5O)C4(C)C)[C@]3(C)[C@H](O)C[C@]12C [Mogroside IIA2]	increase the perception of bitterness
C[C@H](CC[C@@H](O[C@@H]1O[C@H](CO)[C@@H](O)[C@H](O)[C@H]1O[C@@H]1O[C@H](CO)[C@@H](O)[C@H](O)[C@H]1O)C(C)(C)O)[C@H]1CC[C@@]2(C)[C@@H]3CC=C4[C@@H](CC[C@H](O)C4(C)C)[C@]3(C)[C@H](O)C[C@]12C [Mogroside IIA]	increase the perception of bitterness
C[C@H](CC[C@@H](O[C@@H]1O[C@H](CO[C@@H]2O[C@H](CO)[C@@H](O)[C@H](O)[C@H]2O)[C@@H](O)[C@H](O)[C@H]1O)C(C)(C)O)[C@H]1CC[C@@]2(C)C3CC=C4[C@@H](CC[C@H](O)C4(C)C)[C@]3(C)[C@H](O)C[C@]12C (stereo partly drawn) [Mogroside IIA1]	increase the perception of bitterness
C[C@H](CC[C@@H](O[C@@H]1O[C@H](CO[C@@H]2O[C@H](CO)[C@@H](O)[C@H](O)[C@H]2O)[C@@H](O)[C@H](O)[C@H]1O)C(C)(C)O)[C@H]1CC[C@@]2(C)C3CC=C4[C@@H](CC[C@H](O[C@@H]5O[C@H](CO[C@@H]6O[C@H](CO)[C@@H](O)[C@H](O)[C@H]6O)[C@@H](O)[C@H](O)[C@H]5O)C4(C)C)[C@]3(C)[C@H](O)C[C@]12C (stereo partly drawn) [Mogroside IVA]	increase the perception of bitterness
C[C@H](CC[C@@H](O[C@@H]1O[C@H](CO[C@@H]2O[C@H](CO)[C@@H](O)[C@H](O)[C@H]2O)[C@@H](O)[C@H](O)[C@H]1O)C(C)(C)O)[C@H]1CC[C@@]2(C)C3CC=C4[C@@H](CC[C@H](O)C4(C)C)[C@]3(C)C(=O)C[C@]12C (stereo partly drawn) [11-Oxomogroside IIA1]	increase the perception of bitterness
C[C@H](CC[C@@H](O)C(C)(C)O)[C@H]1CC[C@@]2(C)[C@@H]3CC=C4[C@@H](CC[C@H](O[C@@H]5O[C@H](CO[C@@H]6O[C@H](CO)[C@@H](O)[C@H](O)[C@H]6O)[C@@H](O)[C@H](O)[C@H]5O)C4(C)C)[C@]3(C)C(=O)C[C@]12C [11-Oxomogroside IIA2]	increase the perception of bitterness
C[C@H](CC[C@@H](O[C@@H]1O[C@H](CO)[C@@H](O)[C@H](O)[C@H]1O)C(C)(C)O)[C@H]1CC[C@@]2(C)C3CC=C4[C@@H](CC[C@H](O)C4(C)C)[C@]3(C)[C@H](O)C[C@]12C (stereo partly drawn) [Mogroside IA]	increase the perception of bitterness
C[C@H](CC[C@@H](O[C@@H]1O[C@H](CO)[C@@H](O)[C@H](O)[C@H]1O)C(C)(C)O)[C@H]1CC[C@@]2(C)C3CC=C4[C@@H](CC[C@H](O[C@@H]5O[C@H](CO)[C@@H](O)[C@H](O)[C@H]5O)C4(C)C)[C@]3(C)C(=O)C[C@]12C (stereo partly drawn) [11-Oxomogroside IIE]	increase the perception of bitterness

same assay, conditions: when present in certain amounts in blends with siamenoside I

Molecule	impact on bitterness in blends with siamenoside I
C[C@H](CC[C@@H](O[C@@H]1O[C@H](CO)[C@@H](O)[C@H](O)[C@H]1O[C@@H]1O[C@H](CO)[C@@H](O)[C@H](O)[C@H]1O)C(C)(C)O)[C@H]1CC[C@@]2(C)C3CC=C4[C@@H](CC[C@H](O[C@@H]5O[C@H](CO)[C@@H](O)[C@H](O)[C@H]5O)C4(C)C)[C@]3(C)[C@H](O)C[C@]12C (stereo partly drawn) [Mogroside IIIE]	do not impact bitterness
C[C@H](CC[C@@H](O[C@@H]1O[C@H](CO[C@@H]2O[C@H](CO)[C@@H](O)[C@H](O)[C@H]2O)[C@@H](O)[C@H](O)[C@H]1O[C@@H]1O[C@H](CO)[C@@H](O)[C@H](O)[C@H]1O)C(C)(C)O)[C@H]1CC[C@@]2(C)[C@@H]3CC=C4[C@@H](CC[C@H](O[C@@H]5O[C@H](CO[C@@H]6O[C@H](CO)[C@@H](O)[C@H](O)[C@H]6O)[C@@H](O)[C@H](O)[C@H]5O)C4(C)C)[C@]3(C)[C@H](O)C[C@]12C [Mogroside V]	do not impact bitterness
11-oxomogroside I	do not impact bitterness
